Assay results: ChEMBL document CHEMBL1201862, “PubChem BioAssay data set” (2004)
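Tested at 5 concentrations; 48 h exposure; 96-well plates; endpoints linearly interpolated, else capped at highest concentration. The concentration for 50% growth inhibition is given as GI50.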 Activity calls are given as the source filed them. Rule as the data show it: active = GI50 up to about 1.1 µM and inactive = higher.

Legend:
Test in all cases: NCI anticancer screen, dose series, 48 h
[1] = system: SK-MEL-2
[2] = system: NCI-H460
[3] = system: RXF 631
[4] = system: SF-268
[5] = system: KM12
[6] = system: COLO 205
[7] = system: HCC 2998
[8] = system: SK-MEL-28
[9] = system: LXFL 529
[10] = system: M14
[11] = system: UO-31
[12] = system: EKVX
[13] = system: HOP-62
[14] = system: HL-60
[15] = system: TK-10
[16] = system: HOP-92
[17] = system: OVCAR-3
[18] = system: CCRF-CEM
[19] = system: OVCAR-5
[20] = system: HCT-15
[21] = system: ACHN
[22] = system: SK-OV-3
[23] = system: LOX IMVI
[24] = system: SK-MEL-5
[25] = system: RPMI-8226
[26] = system: IGROV-1
[27] = system: NCI-H23
[28] = system: DMS-273
[29] = system: OVCAR-4
[30] = system: M19-MEL
[31] = system: SN12C
[32] = system: SF-295
[33] = system: OVCAR-8
[34] = system: KM-20L2
[35] = system: SW-620
[36] = system: SR
[37] = system: RXF 393
[38] = system: DLD-1
[39] = system: K562
[40] = system: HT-29
[41] = system: UACC-62
[42] = system: U-251
[43] = system: SNB-75
[44] = system: HOP-18
[45] = system: NCI-H226
[46] = system: UACC-257
[47] = system: NCI-H522
[48] = system: 786-0
[49] = system: XF498
[50] = system: DMS-114
[51] = system: SF-539
[52] = system: SNB-19
[53] = system: MOLT-4
[54] = system: HCT-116
[55] = system: A549
[56] = system: CAKI-1
[57] = system: SNB-78
[58] = system: Malme-3M

Measured: GI50

CCOP1(=O)C=C(C)C(Cl)=C(C)C1 (configuration not stated)
23.3 µM: [20]
inactive: [1] 8.91 µM | [2] 39.2 µM | [3] 2.75 µM | [4] 38.9 µM | [5] 15.8 µM | [6] 12 µM | [7] 80.2 µM | [8] 17.3 µM | [9] 17.3 µM | [10] 17.1 µM | [11] 35.3 µM | [12] > 100 µM | [13] > 100 µM | [14] 19.1 µM | [15] 41.4 µM | [16] 19.6 µM | [17] 37.3 µM | [18] 17.6 µM | [19] 43.9 µM | [21] 24.6 µM | [22] 60.3 µM | [23] 20.4 µM | [24] 23.1 µM | [25] 18.9 µM | [26] 56.1 µM | [27] 22.9 µM | [28] 13.6 µM | [29] 24.2 µM | [30] 21.1 µM | [31] 21 µM | [32] 47.1 µM | [33] 30 µM | [34] 32.7 µM | [35] 21.1 µM | [36] 27.2 µM | [37] 29.7 µM | [38] 25.9 µM | [39] 23.4 µM | [40] 24.5 µM | [41] 14.9 µM | [42] 24.3 µM | [43] 15.4 µM | [44] 68.7 µM | [45] 21.4 µM | [46] 23.1 µM | [47] 13.9 µM | [48] 28.3 µM | [49] 26.8 µM | [50] 17.5 µM | [51] 23.1 µM | [52] > 100 µM | [53] 20.4 µM | [54] 17.2 µM | [55] 21.1 µM

Cc1ccc(SCC(=O)C2=C(O)CCCC2=O)cc1
inactive: [1] > 100 µM | [2] > 100 µM | [3] > 100 µM | [4] > 100 µM | [5] > 100 µM | [6] > 100 µM | [8] > 100 µM | [9] > 100 µM | [10] > 100 µM | [11] > 100 µM | [12] > 100 µM | [13] > 100 µM | [14] > 100 µM | [15] > 100 µM | [16] > 100 µM | [17] > 100 µM | [18] 40.6 µM | [19] > 100 µM | [21] > 100 µM | [22] > 100 µM | [23] > 100 µM | [24] > 100 µM | [25] > 100 µM | [26] > 100 µM | [27] > 100 µM | [28] > 100 µM | [29] > 100 µM | [30] > 100 µM | [31] > 100 µM | [32] > 100 µM | [33] > 100 µM | [34] > 100 µM | [35] > 100 µM | [36] > 100 µM | [56] > 100 µM | [37] > 100 µM | [38] > 100 µM | [39] > 100 µM | [40] > 100 µM | [41] > 100 µM | [42] > 100 µM | [43] > 100 µM | [57] > 100 µM | [44] > 100 µM | [45] > 100 µM | [46] > 100 µM | [47] > 100 µM | [48] > 100 µM | [49] > 100 µM | [50] > 100 µM | [51] > 100 µM | [52] > 100 µM | [53] > 100 µM | [54] > 100 µM | [55] > 100 µM | [58] > 100 µM
> 100 µM: [20]
